Measurements taken from ChEMBL document CHEMBL1130364, “3-Amino-1,2-benzisoxazoles: A new family of potent inhibitors of LTB4 binding to the human neutrophils” (Bioorg Med Chem Lett, 1997).

Key:
[1] = molecular target: Leukotriene B4 receptor 1 (Homo sapiens) (UniProt Q15722); experiment: The compound was tested for inhibition of [3H]LTB4 binding to Leukotriene B4 (LTB4) receptor on the human neutrophils (PMN) at concentration of 100 nM
[2] = molecular target: Leukotriene B4 receptor 1 (Homo sapiens) (UniProt Q15722); experiment: The compound was tested for inhibition of [3H]-LTB4 binding to Leukotriene B4 (LTB4) receptor on the human neutrophils (PMN) at concentration of 10 nM
[3] = molecular target: Leukotriene B4 receptor 1 (Homo sapiens) (UniProt Q15722); experiment: The compound was tested for inhibition of [3H]LTB4 binding to Leukotriene B4 (LTB4) receptor on the human neutrophils (PMN) at concentration of 1 uM

Leukotriene B4 receptor 1 (Homo sapiens), sequence (Q15722 whole entry): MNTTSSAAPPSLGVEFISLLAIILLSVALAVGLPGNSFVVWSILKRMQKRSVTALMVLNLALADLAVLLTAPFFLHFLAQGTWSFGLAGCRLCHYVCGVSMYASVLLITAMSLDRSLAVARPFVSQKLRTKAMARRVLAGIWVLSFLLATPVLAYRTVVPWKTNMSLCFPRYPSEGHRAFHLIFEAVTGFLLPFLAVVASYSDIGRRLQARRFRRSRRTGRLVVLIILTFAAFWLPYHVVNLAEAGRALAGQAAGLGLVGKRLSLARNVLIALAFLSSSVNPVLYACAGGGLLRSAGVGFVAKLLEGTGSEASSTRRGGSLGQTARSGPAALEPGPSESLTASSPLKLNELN

inhibition [1] [%]	inhibition [2] [%]	inhibition [3] [%]	SMILES
95	64	99	COc1cc(C(=O)N(C(C)C)C(C)C)ccc1OCCCCOc1ccc2c(N)noc2c1
37	< 10	92	COc1cc(C(=O)N(C(C)C)C(C)C)ccc1OCCCOc1ccc2c(N)noc2c1
10	< 10	90	COc1cc(C(=O)N(C(C)C)C(C)C)ccc1OCCCCCOc1ccc2c(N)noc2c1
